According to patent publication US12043602B2, “Fendiline derivatives” (The Board of Regents of the University of Texas System, priority 2019, dated 2024):
Like-named read-outs stand apart in the source and are kept apart here.

Key:
[1] = test system: NCI H1975 (WT) lung tumor cells; experiment: CyQUANT proliferation assay; assay type: cell-based; parameters: key to IC50 proliferation NCI H1975 (WT): NE—Not efficacious; conditions: for IC50 proliferation NCI H1975 (WT): 72 h; for IC50: Homo sapiens, NCI-H1975, Table 11, lung
Description: (§1) Madine Darby Canine Kidney epithelial cells (MDCK) stably co-expressing mGFP-tagged full length oncogenic mutant K-Ras (GFP—K-RASG12V) or mGFP-LactC2 (peptide probe for phosphatidylserine) and mCherry-tagged to the amino acids 179-189 of H-RasC181S, C184S (mCherry-CAAX, localizes primarily to endomembranes) were grown in DMEM-high glucose/sodium pyruvate/10% FBS. The medium was supplemented with 1× Penicillin/Streptomycin for fluorescence microscopy assays, to avoid any microbial contamination from the test compounds added. KLE and Hec50 cells were maintained in DMEM-F-12 medium supplemented with 10% FBS. Hec-1A and Hec-1B cells were grown in McCoy's 5a medium supplemented with 10% FBS. ESS-1 cells were grown in RPMI 1640 medium supplemented with 20% FBS. MPanc96 cells were grown in DMEM supplemented with 10% FBS, MiaPaCa-2 cells in DMEM supplemented with 10% FBS and 2.5% horse serum and all other cell lines were grown in RPMI 1640 supplemented with 10% FBS. All cancer cell media were supplemented with ×Penicillin/Streptomycin. All cell lines were grown at 37° C. with 5% CO2.
(§2) Cells were seeded in 96-well plates. After 24 h, fresh growth medium supplemented with 0.1% vehicle (DMSO), or various concentrations of drugs was added and cells were grown for 72 h. Cell numbers were quantified using the CyQUANT® Cell Proliferation Assay Kit (Molecular Probes, Life Technologies), according to the manufacturer's protocol. Fluorescence measurement was used as a measure of live cell number.

[2] = test system: CaCO-2 (WT) colon tumor cells; experiment: CyQUANT proliferation assay; assay type: cell-based; conditions: Homo sapiens
Description: as §1, §2

[3] = test system: Hec1A (Mut) endometrial tumor cells; experiment: CyQUANT proliferation assay; assay type: cell-based; conditions: Homo sapiens, HEC-1-A
Description: as §1, §2

[4] = test system: Hec1B (Mut) endometrial tumor cells; experiment: CyQUANT proliferation assay; assay type: cell-based; conditions: Homo sapiens, HEC-1B
Description: as §1, §2

[5] = test system: NCI-H1299 (WT) lung tumor cells; experiment: CyQUANT proliferation assay; assay type: cell-based; conditions: Homo sapiens
Description: as §1, §2

[6] = test system: SK-CO-1 (Mut) colon tumor cells; experiment: CyQUANT proliferation assay; assay type: cell-based; conditions: Homo sapiens
Description: as §1, §2

[7] = test system: NCI-H23 (Mut) lung tumor cells; experiment: CyQUANT proliferation assay; assay type: cell-based; conditions: Homo sapiens
Description: as §1, §2

[8] = test system: Ishikawa (WT) endometrial tumor cells; experiment: CyQUANT proliferation assay; assay type: cell-based; parameters: key to IC50 proliferation Ishikawa (WT): NE—Not efficacious; conditions: for IC50: Homo sapiens, Ishikawa
Description: as §1, §2

[9] = test system: sphingomyelin (SM) in MiaPaCa-2 tumor sections; experiment: Lysenin (GFP-Lys) staining of tumor sections; assay type: in vivo, nu/nu mice; conditions: 12.5 mg/kg
Description: Lysenin Staining of Tumor Sections. To label intracellular SM, 3 μm thick cryosections, fixed in 4% paraformaldehyde and quenched in 0.1 M NH4Cl, were permeabilized with 0.5% saponin before overnight incubation (4° C.) with MBP-GFP Lysenin (50 μg/mL) in PBS with 0.5% saponin containing DAPI (5 ng/mL). Samples mounted in FluorSave were photographed in the Nikon AIR Confocal Laser Microscope. GFP-Lysenin binding was quantitated using NIS
Elements BR analysis ver. 4.13.04. The average value obtained in the negative control pictures (background) was subtracted from each of the GFP pictures (n=20).
To determine if the reduction in tumor growth elicited by the compounds were mediated by inhibition of ASM, we stained the tissue sections for SM using a non-toxic recombinant fragment of lysenin tagged with GFP (GFP-Lys). In DMSO-treated tumor sections, weak GFP-Lys staining was observed. […] We also observed that the blood vessels were dilated in compound 6 treated tumors, whereas the blood vessel diameters were not changed in compound 12h (NY0331) and 22 (NY0335) treated tumors (FIG. 8E).

pERK = experiment: Immunohistochemistry of tumor sections, pERK; parameters: species or system nu/nu mice; conditions: mouse, in vivo
Description: Immunohistochemistry. 4-5 μm sections were deparaffinized, rehydrated, and treated with 10 mM sodium citrate for heat induced antigen retrieval. After quenching endogenous peroxidase, and blocking with 2.5% normal goat serum (Vector Laboratories S-1012), sections were incubated overnight at 4° C. with primary antibody diluted in blocking solution as recommended by manufacturer (Cell Signaling). Controls were incubated with diluted normal rabbit IgG. After incubation with biotinylated secondary antibody diluted 1:250 in blocking serum for 45 min at rt, sections were incubated with VECTASTAIN ABC reagent for 30 min, and for development of the DAB chromogen the Quanto substrate was used. Slides were counter stained with Hematoxylin. Five fields per stained section per xenograft were photographed at 10X. CC3+ and pERK+ area and number of events per field were quantitated via automated image analysis (NIS Elements BR analysis ver. 4.13.04). Vessel number and lumen area per field used the same software with manual settings to trace vessel wall contours. Antibodies used are as follows: CC3: Cell Signaling #9661, use at 1:300. (Cleaved Caspase-3 (Asp175) Antibody. Rabbit polyclonal. pERK: Cell Signaling #4370: Phospho-p44/42 MAPK (Erk1/2) (Thr202/Tyr204) (D13.14.4E) XP Rabbit mAB. CD31 (PECAM-1) (D8V9E) XP Rabbit mAB (Cell signal # (Cell signal #77699). Normal rabbit IgG: Santa Cruz #sc-3888. Concentration is 50 μg/mL or 50 ng/μL. Prepared with 5 μg in 200 μL blocking solution. Goat Anti-Rabbit IgG Biotin Conjugate: Calbiochem #OS03B, Concentration=1.2 mg/mL. Recommended to be used for IHC at 1 μg/mL.

[10] = test system: MDCK cells co-expressing GFP-K-RASG12V and mCherry-CAAX; experiment: Cytotoxicity in mislocalization screen (death of all cells in well); conditions: drug caused death of all cells in well at 30 μM
[11] = Caco-2, 72 h, read-out: IC50 proliferation CaCO-2 (WT)
[12] = Caco-2, Table 11, colon, read-out: IC50 (μM) Caco-2 (WT)
[13] = 72 h, read-out: IC50 proliferation Hec1A (Mut)
[14] = Table 11, endometrial, read-out: IC50 (μM) Hec1A (Mut)
[15] = 72 h, read-out: IC50 proliferation Hec1B (Mut)
[16] = Table 11, endometrial, read-out: IC50 (μM) Hec1B (Mut)
[17] = NCI-H1299, 72 h, read-out: IC50 proliferation NCI-H1299 (WT; N Mut in Table 6)
[18] = NCI-H1299, Table 11, lung, read-out: IC50 (μM) NCI H1299 (WT)
[19] = SK-CO-1, 72 h, read-out: IC50 proliferation SK-CO-1 (Mut)
[20] = SK-CO-1, Table 11, colon, read-out: IC50 (μM) SK-CO-1 (Mut)
[21] = NCI-H23, 72 h, read-out: IC50 proliferation NCI-H23 (Mut)
[22] = NCI-H23, Table 11, lung, read-out: IC50 (μM) NCI H23 (Mut)
[23] = Table 11, endometrial, read-out: IC50 (μM) Ishikawa (WT)

Row | Structure (SMILES) | IC50 proliferation NCI H1975 (WT) [1] | IC50 [1] | IC50 [2, 11] | IC50 [2, 12] | IC50 [3, 13] | IC50 [3, 14] | IC50 [4, 15] | IC50 [4, 16] | IC50 [5, 17] | IC50 [5, 18] | IC50 [6, 19] | IC50 [6, 20] | IC50 [7, 21] | IC50 [7, 22] | IC50 proliferation Ishikawa (WT) ([8]; 72 h) | IC50 [8, 23] | GFP-Lys staining (SM) of tumor sections [9] | pERK levels in tumors (pERK) | Cytotoxic at 30 μM [10] | IC50 ([8]; 72 h, read-out: IC50 proliferation Ishikawa (WT))
1 | CC(NCCC(c1ccccc1)c1ccccc1)c1ccccc1 (stereo not drawn) [Fendiline] | NE | > 30 µM | 15.4 µM | 14.5 µM | 9.48 µM | 9.48 µM | 9.8 µM | 9.8 µM | 24.2 µM | 24.3 ± 2.1 µM | 7.77 µM | 7.8 µM | 11.4 µM | 11.4 ± 1 µM | NE | > 30 µM | significantly increased | no significant effect |  | 
2 | COc1ccc([C@@H](C)N(CC=C(c2ccccc2)c2ccccc2)CCN2CCN(C)CC2)cc1 [NY0244, (R)-N-(1-(4-methoxyphenyl)ethyl)-N-(2-(4-methylpiperazin-1-yl)ethyl)-3,3-diphenylprop-2-en-1-amine] | NE | > 30 µM | 5.1 µM | 5.1 µM | 2.6 µM | 2.6 µM | 3.28 µM | 3.3 µM | 8.24 µM | 8.2 µM | 3.28 µM | 3.3 µM | 3.81 µM | 3.8 µM | NE | > 30 µM |  |  | Yes | 
3 | COc1ccc([C@@H](C)N(CC=C(c2ccccc2)c2ccccc2)CCN2CCCC2)cc1 [NY0331, (R)-N-(1-(4-methoxyphenyl)ethyl)-3,3-diphenyl-N-(2-(pyrrolidin-1-yl)ethyl)prop-2-en-1-amine] |  |  |  |  |  |  |  |  |  |  |  |  |  |  |  |  | significantly increased | reduced | Yes | 
4 | COc1ccc([C@@H](C)N(CC=C(c2ccccc2)c2ccccc2)CCCN2CCN(C)CC2)cc1 [NY0335, (R)-N-(1-(4-methoxyphenyl)ethyl)-N-(3-(4-methylpiperazin-1-yl)propyl)-3,3-diphenylprop-2-en-1-amine] | NE | > 30 µM | 4.43 µM | 4.4 µM | 2.34 µM | 2.3 µM | 3.89 µM | 3.9 µM | 8.12 µM | 8.2 ± 1 µM | 3.52 µM | 3.5 µM | 4.14 µM | 4.1 µM |  | 11 µM | did not enhance GFP-Lys staining | reduced | Yes | 11 µM
